In assay [1] the test system is riboswitch 15D10. Kind of assay: Luciferase reporter with 15D10 riboswitch (Luci-15D10) in HEK 293 cells. Conditions: 50 μM, HEK 293 cells, Table 2; for fold induction at 50 µM: Homo sapiens, HEK293, 24 h, read-out: Fold increase in riboswitch 15D10-regulated luciferase expression, HEK. In kind it is cell-based, human. The protocol:
Transfection: 3.5×10^4 human embryonic kidney (HEK) 293 cells were plated in a 96-well flat bottom plate the day before transfection. Plasmid DNA (500 ng) was added to a tube or a 96-well U-bottom plate. […] Then, 50 μL of this diluted transfection reagent was added to the DNA, mixed, and incubated at RT for 20 min. Finally, 7 μL of this solution was added to a well of cells in the 96-well plate. Four hours after transfection, medium containing transfection solution was replaced by medium containing either TPP, fursultiamine, prosultiamine, bisbentiamine, beclotiamine hydrochloride, or sulbutiamine as aptamer inducers.
Firefly luciferase assay of cultured cells: Twenty-four hours after media change, plates were removed from the incubator, and equilibrated to RT for several minutes on a lab bench, then aspirated. Glo-lysis buffer (Promega, 100 μL, RT) was added, and the plates allowed to remain at RT for at least 5 minutes. Then, the well contents were mixed by 50 μL trituration, and 20 μL of each sample was mixed with 20 μL of bright-glo reagent (Promega) that had been diluted to 10% in glo-lysis buffer. 96 wells were spaced on an opaque white 384-well plate. Following a 5 min incubation at RT, luminescence was measured using a Tecan machine with 500 ms read time. The luciferase activity was expressed as mean arbitrary light units (ALU)±S.D., and fold induction was calculated as the quotient of the luciferase activity obtained from cells with TPP or analog treatment divided by the luciferase activity obtained from cells without TPP or analog treatment.

Assay [2] deals with riboswitch 15D10. Kind of assay: Luciferase reporter with 15D10 riboswitch (Luci-15D10) in AML12 cells. The assay is classed as cell-based, mouse. Conditions: 50 μM, AML12 cells, Table 2; for fold induction at 50 µM: Mus musculus, AML12, 24 h, read-out: Fold increase in riboswitch 15D10-regulated luciferase expression, AML.

For `C/C(=C(\CCO)SC(=O)c1ccc(C)c2ccccc12)N(C=O)Cc1cnc(C)nc1N` [Compound M37, (Z)—S-(2-(N-((4-amino-2-methylpyrimidin-5-yl)methyl)formamido)-5-hydroxypent-2-en-3-yl) 4-methylnaphthalene-1-carbothioate], the fold induction at 50 µM in the assay on riboswitch 15D10 [1] turned out to be 76.2; in the assay on riboswitch 15D10 [2], 134.

For `CCOc1ccc2ccccc2c1C(=O)S/C(CCO)=C(/C)N(C=O)Cc1cnc(C)nc1N` [Compound M38, (Z)—S-(2-(N-((4-amino-2-methylpyrimidin-5-yl)methyl)formamido)-5-hydroxypent-2-en-3-yl) 2-ethoxynaphthalene-1-carbothioate], the fold induction at 50 µM with riboswitch 15D10 [1] amounted to 1.2; with riboswitch 15D10 [2] it was 1.

For `C/C(=C(\CCO)SC(=O)c1ccc(Br)c2ccccc12)N(C=O)Cc1cnc(C)nc1N` [Compound M39, (Z)—S-(2-(N-((4-amino-2-methylpyrimidin-5-yl)methyl)formamido)-5-hydroxypent-2-en-3-yl) 4-bromonaphthalene-1-carbothioate], the fold induction at 50 µM with riboswitch 15D10 [1] turned out to be 103; with riboswitch 15D10 [2] it was 127.

In the case of `C/C(=C(\CCO)SC(=O)c1cc2ccccc2c2ccccc12)N(C=O)Cc1cnc(C)nc1N` [Compound M40, (Z)—S-(2-(N-((4-amino-2-methylpyrimidin-5-yl)methyl)formamido)-5-hydroxypent-2-en-3-yl) phenanthrene-9-carbothioate], the “Fold increase in riboswitch 15D10-regulated luciferase expression, HEK” value with riboswitch 15D10 [1] was determined as 83.1 fold. Further, the “Fold increase in riboswitch 15D10-regulated luciferase expression, AML” value with riboswitch 15D10 [2] worked out at 206.0 fold.

Regarding `C/C(=C(\CCO)SC(=O)c1cc2ccccc2c2ccccc12)N(C=O)Cc1cnc(C)nc1N` [Compound M43, (Z)—S-(2-(N-((4-amino-2-methylpyrimidin-5-yl)methyl)formamido)-5-hydroxypent-2-en-3-yl) phenanthrene-9-carbothioate], the “Fold increase in riboswitch 15D10-regulated luciferase expression, HEK” value in the assay with riboswitch 15D10 [1] amounted to 10.2 fold. In addition, in the assay with riboswitch 15D10 [2], the “Fold increase in riboswitch 15D10-regulated luciferase expression, AML” value worked out at 95.3 fold.

Turning to `C/C(=C(\CCO)SC(=O)c1ccc(F)c2ccccc12)N(C=O)Cc1cnc(C)nc1N` [Compound M44, (Z)—S-(2-(N-((4-amino-2-methylpyrimidin-5-yl)methyl)formamido)-5-hydroxypent-2-en-3-yl) 4-fluoronaphthalene-1-carbothioate], the figures for the fold induction at 50 µM in the assay with riboswitch 15D10 [1] and in the assay on riboswitch 15D10 [2] were 177 and 314, respectively.

On to `C/C(=C(\CCO)SC(=O)c1cccc2cccc(F)c12)N(C=O)Cc1cnc(C)nc1N` [Compound M45, (Z)—S-(2-(N-((4-amino-2-methylpyrimidin-5-yl)methyl)formamido)-5-hydroxypent-2-en-3-yl) 8-fluoronaphthalene-1-carbothioate], for which the fold induction at 50 µM is 1.3 in the assay with riboswitch 15D10 [1] and 2.9 with riboswitch 15D10 [2].

Consider `C/C(=C(\CCO)SC(=O)c1cccc2cccc(C)c12)N(C=O)Cc1cnc(C)nc1N` [Compound M46, (Z)—S-(2-(N-((4-amino-2-methylpyrimidin-5-yl)methyl)formamido)-5-hydroxypent-2-en-3-yl) 8-methylnaphthalene-1-carbothioate], for which the fold induction at 50 µM in the assay on riboswitch 15D10 [1] is 1.3; in the assay with riboswitch 15D10 [2], 6.

In the case of `COc1ccc(C(=O)S/C(CCO)=C(/C)N(C=O)Cc2cnc(C)nc2N)c2ccccc12` [Compound M47, (Z)—S-(2-(N-((4-amino-2-methylpyrimidin-5-yl)methyl)formamido)-5-hydroxypent-2-en-3-yl) 4-methoxynaphthalene-1-carbothioate], the fold induction at 50 µM was 25.3 with riboswitch 15D10 [1] and 85.1 in the assay with riboswitch 15D10 [2].

For `C/C(=C(\CCO)SC(=O)c1ccc2ccccc2c1)N(C=O)Cc1cnc(C)nc1N` [Compound M49, (Z)—S-(2-(N-((4-amino-2-methylpyrimidin-5-yl)methyl)formamido)-5-hydroxypent-2-en-3-yl) naphthalene-2-carbothioate], the figures for the fold induction at 50 µM in the assay with riboswitch 15D10 [1] and with riboswitch 15D10 [2] were 414 and 202, respectively.

For `C/C(=C(\CCO)SC(=O)c1ccc2c(c1)C(C)(C)CCC2(C)C)N(C=O)Cc1cnc(C)nc1N` [Compound M50, (Z)—S-(2-(N-((4-amino-2-methylpyrimidin-5-yl)methyl)formamido)-5-hydroxypent-2-en-3-yl) 5,5,8,8-tetramethyl-5,6,7,8-tetrahydronaphthalene-2-carbothioate], the values for the fold induction at 50 µM in the assay with riboswitch 15D10 [1] and in the assay on riboswitch 15D10 [2] were 93.5 and 142, respectively.

With `C/C(=C(\CCO)SC(=O)c1ccc2ccccc2c1Br)N(C=O)Cc1cnc(C)nc1N` [Compound M51, (Z)—S-(2-(N-((4-amino-2-methylpyrimidin-5-yl)methyl)formamido)-5-hydroxypent-2-en-3-yl) 1-bromonaphthalene-2-carbothioate], the fold induction at 50 µM in the assay with riboswitch 15D10 [1] was determined as 392; in the assay with riboswitch 15D10 [2], 189.

As to `COc1ccc2cc(C(=O)S/C(CCO)=C(/C)N(C=O)Cc3cnc(C)nc3N)ccc2c1` [Compound M52, (Z)—S-(2-(N-((4-amino-2-methylpyrimidin-5-yl)methyl)formamido)-5-hydroxypent-2-en-3-yl) 6-methoxynaphthalene-2-carbothioate], the fold induction at 50 µM was 364 in the assay with riboswitch 15D10 [1] and 195 in the assay on riboswitch 15D10 [2].

Consider `C/C(=C(\CCO)SC(=O)C12CC3CC(CC(C3)C1)C2)N(C=O)Cc1cnc(C)nc1N` [Compound M53, S—((Z)-2-(N-((4-amino-2-methylpyrimidin-5-yl)methyl)formamido)-5-hydroxypent-2-en-3-yl) (3r,5r,7r)-adamantane-1-carbothioate], for which the figures for the fold induction at 50 µM in the assay on riboswitch 15D10 [1] and in the assay on riboswitch 15D10 [2] were 2.4 and 57, respectively.

In the case of `C/C(=C(\CCO)SC(=O)C(C)c1ccccc1)N(C=O)Cc1cnc(C)nc1N` (stereo not drawn) [Compound M54, (Z)—S-(2-(N-((4-amino-2-methylpyrimidin-5-yl)methyl)formamido)-5-hydroxypent-2-en-3-yl) 2-phenylpropanethioate], the fold induction at 50 µM with riboswitch 15D10 [1] turned out to be 3; in the assay on riboswitch 15D10 [2], 13.9.

Take `C/C(=C(\CCO)SC(=O)C(C)(C)Cc1ccccc1)N(C=O)Cc1cnc(C)nc1N` [Compound M55, (Z)—S-(2-(N-((4-amino-2-methylpyrimidin-5-yl)methyl)formamido)-5-hydroxypent-2-en-3-yl) 2,2-dimethyl-3-phenylpropanethioate]: the fold induction at 50 µM in the assay on riboswitch 15D10 [1] came out at 2.1; in the assay with riboswitch 15D10 [2] it was 9.

On to `C/C(=C(\CCO)SC(=O)C1(C)CCCCC1)N(C=O)Cc1cnc(C)nc1N` [Compound M57, (Z)—S-(2-(N-((4-amino-2-methylpyrimidin-5-yl)methyl)formamido)-5-hydroxypent-2-en-3-yl) 1-methylcyclohexane-1-carbothioate], for which the fold induction at 50 µM stood at 1.2 with riboswitch 15D10 [1] and 24.4 in the assay with riboswitch 15D10 [2].

Regarding `C/C(=C(\CCO)SC(=O)C(C)(c1ccccc1)c1ccccc1)N(C=O)Cc1cnc(C)nc1N` [Compound M58, (Z)—S-(2-(N-((4-amino-2-methylpyrimidin-5-yl)methyl)formamido)-5-hydroxypent-2-en-3-yl) 2,2-diphenylpropanethioate], the values for the fold induction at 50 µM in the assay with riboswitch 15D10 [1] and with riboswitch 15D10 [2] were 1.1 and 1.5, respectively.

For the compound `C/C(=C(\CCO)SC(=O)C(c1ccccc1)C(C)C)N(C=O)Cc1cnc(C)nc1N` (stereo not drawn) [Compound M59, (Z)—S-(2-(N-((4-amino-2-methylpyrimidin-5-yl)methyl)formamido)-5-hydroxypent-2-en-3-yl) 3-methyl-2-phenylbutanethioate], the fold induction at 50 µM in the assay on riboswitch 15D10 [1] turned out to be 1.1; in the assay on riboswitch 15D10 [2] it was 1.

Consider `C/C(=C(\CCO)SC(=O)C1(C)Cc2ccccc2C1)N(C=O)Cc1cnc(C)nc1N` [Compound M62, (Z)—S-(2-(N-((4-amino-2-methylpyrimidin-5-yl)methyl)formamido)-5-hydroxypent-2-en-3-yl) 2-methyl-2,3-dihydro-1H-indene-2-carbothioate], for which the fold induction at 50 µM came to 49 in the assay with riboswitch 15D10 [1] and 110 in the assay on riboswitch 15D10 [2].

Take `C/C(=C(\CCO)SC(=O)C(C)(C)c1ccc2ccccc2c1)N(C=O)Cc1cnc(C)nc1N` [Compound M63, (Z)—S-(2-(N-((4-amino-2-methylpyrimidin-5-yl)methyl)formamido)-5-hydroxypent-2-en-3-yl) 2-methyl-2-(naphthalen-2-yl)propanethioate]: the values for the fold induction at 50 µM in the assay with riboswitch 15D10 [1] and with riboswitch 15D10 [2] were 1.7 and 19, respectively.

As to `C/C(=C(\CCO)SC(=O)C(c1ccccc1)c1ccccc1)N(C=O)Cc1cnc(C)nc1N` [Compound M64, (Z)—S-(2-(N-((4-amino-2-methylpyrimidin-5-yl)methyl)formamido)-5-hydroxypent-2-en-3-yl) 2,2-diphenylethanethioate], the fold induction at 50 µM in the assay on riboswitch 15D10 [1] stood at 2; in the assay on riboswitch 15D10 [2], 3.9.

Turning to `C/C(=C(\CCO)SC(=O)C1(c2cccc(Br)c2)CC1)N(C=O)Cc1cnc(C)nc1N` [Compound M65, (Z)—S-(2-(N-((4-amino-2-methylpyrimidin-5-yl)methyl)formamido)-5-hydroxypent-2-en-3-yl) 1-(3-bromophenyl)cyclopropane-1-carbothioate], the values for the fold induction at 50 µM in the assay with riboswitch 15D10 [1] and in the assay on riboswitch 15D10 [2] were 3.2 and 67.1, respectively.
